Assay: xn = mol fraction of the nth substance listed
Conditions: Liquid; for viscosity: 101 kPa, Capillary tube (Ostwald / Ubbelohde) method; for mass density: 101.3 kPa

CCCCCl [1-chlorobutane] + CC(C)OC(C)C
Conditions | mass density [kg/m3] | viscosity [mPa·s]
283.15 K, x1 = 0.0466 | 740.095 | 0.3698
283.15 K, x1 = 0.0991 | 747.139 | 0.3755
283.15 K, x1 = 0.1918 | 759.833 | 0.3863
283.15 K, x1 = 0.3234 | 778.726 | 0.4028
283.15 K, x1 = 0.4199 | 793.339 | 0.4153
283.15 K, x1 = 0.516 | 808.586 | 0.4283
283.15 K, x1 = 0.623 | 826.434 | 0.4433
283.15 K, x1 = 0.7154 | 842.63 | 0.4568
283.15 K, x1 = 0.8157 | 861.003 | 0.4715
283.15 K, x1 = 0.9098 | 879.099 | 0.4857
283.15 K, x1 = 0.9559 | 888.28 | 0.4927
283.15 K, x1 = 1 | 897.339 | 0.4993
288.15 K, x1 = 0.0466 | 734.99 | 0.3535
288.15 K, x1 = 0.0991 | 741.966 | 0.359
288.15 K, x1 = 0.1918 | 754.629 | 0.3689
288.15 K, x1 = 0.3234 | 773.471 | 0.3838
288.15 K, x1 = 0.4199 | 788.055 | 0.3951
288.15 K, x1 = 0.516 | 803.274 | 0.4068
288.15 K, x1 = 0.623 | 821.073 | 0.4202
288.15 K, x1 = 0.7154 | 837.246 | 0.4321
288.15 K, x1 = 0.8157 | 855.588 | 0.4453
288.15 K, x1 = 0.9098 | 873.635 | 0.4579
288.15 K, x1 = 0.9559 | 882.81 | 0.4641
288.15 K, x1 = 1 | 891.855 | 0.4701
293.15 K, x1 = 0.0466 | 729.792 | 0.3385
293.15 K, x1 = 0.0991 | 736.75 | 0.3435
293.15 K, x1 = 0.1918 | 749.383 | 0.3528
293.15 K, x1 = 0.3234 | 768.192 | 0.3662
293.15 K, x1 = 0.4199 | 782.731 | 0.3763
293.15 K, x1 = 0.516 | 797.924 | 0.3868
293.15 K, x1 = 0.623 | 815.68 | 0.3988
293.15 K, x1 = 0.7154 | 831.821 | 0.4094
293.15 K, x1 = 0.8157 | 850.133 | 0.4212
293.15 K, x1 = 0.9098 | 868.142 | 0.4323
293.15 K, x1 = 0.9559 | 877.303 | 0.4379
293.15 K, x1 = 1 | 886.335 | 0.4433
298.15 K, x1 = 0.0466 | 724.56 | 0.3222
298.15 K, x1 = 0.0991 | 731.492 | 0.3273
298.15 K, x1 = 0.1918 | 744.091 | 0.336
298.15 K, x1 = 0.3234 | 762.854 | 0.3487
298.15 K, x1 = 0.4199 | 777.351 | 0.3583
298.15 K, x1 = 0.516 | 792.506 | 0.3682
298.15 K, x1 = 0.623 | 810.177 | 0.3793
298.15 K, x1 = 0.7154 | 826.321 | 0.3893
298.15 K, x1 = 0.8157 | 844.587 | 0.4003
298.15 K, x1 = 0.9098 | 862.556 | 0.411
298.15 K, x1 = 0.9559 | 871.691 | 0.4162
298.15 K, x1 = 1 | 880.705 | 0.4214
303.15 K, x1 = 0.0466 | 719.283 | 0.3048
303.15 K, x1 = 0.0991 | 726.204 | 0.3098
303.15 K, x1 = 0.1918 | 738.777 | 0.3188
303.15 K, x1 = 0.3234 | 757.526 | 0.3318
303.15 K, x1 = 0.4199 | 771.984 | 0.3415
303.15 K, x1 = 0.516 | 787.119 | 0.3514
303.15 K, x1 = 0.623 | 804.761 | 0.3628
303.15 K, x1 = 0.7154 | 820.882 | 0.3726
303.15 K, x1 = 0.8157 | 839.124 | 0.3837
303.15 K, x1 = 0.9098 | 857.076 | 0.3944
303.15 K, x1 = 0.9559 | 866.204 | 0.3998
303.15 K, x1 = 1 | 875.204 | 0.405
308.15 K, x1 = 0.0466 | 713.967 | 0.2903
308.15 K, x1 = 0.0991 | 720.87 | 0.2953
308.15 K, x1 = 0.1918 | 733.414 | 0.3043
308.15 K, x1 = 0.3234 | 752.126 | 0.317
308.15 K, x1 = 0.4199 | 766.553 | 0.3266
308.15 K, x1 = 0.516 | 781.656 | 0.3362
308.15 K, x1 = 0.623 | 799.266 | 0.3472
308.15 K, x1 = 0.7154 | 815.358 | 0.3569
308.15 K, x1 = 0.8157 | 833.567 | 0.3677
308.15 K, x1 = 0.9098 | 851.486 | 0.3781
308.15 K, x1 = 0.9559 | 860.595 | 0.3833
308.15 K, x1 = 1 | 869.585 | 0.3885
313.15 K, x1 = 0.0466 | 708.604 | 0.2765
313.15 K, x1 = 0.0991 | 715.486 | 0.2811
313.15 K, x1 = 0.1918 | 728.002 | 0.2891
313.15 K, x1 = 0.3234 | 746.649 | 0.3005
313.15 K, x1 = 0.4199 | 761.063 | 0.309
313.15 K, x1 = 0.516 | 776.136 | 0.3175
313.15 K, x1 = 0.623 | 793.704 | 0.3274
313.15 K, x1 = 0.7154 | 809.769 | 0.3359
313.15 K, x1 = 0.8157 | 827.935 | 0.3456
313.15 K, x1 = 0.9098 | 845.816 | 0.3548
313.15 K, x1 = 0.9559 | 854.913 | 0.3594
313.15 K, x1 = 1 | 863.882 | 0.3642
